Values quoted from earlier work as cited in patent US20220226239A1, “POLYMERIC MICELLE COMPLEXES, FORMULATIONS, AND USES THEREOF” (ARAVASC INC., priority 2019, published 2022).

How the values were obtained:
[1] = for pKa (tri-protic phosphate), first value: first of three pKa values; for pKa (tri-protic phosphate), second value: second of three pKa values; for pKa (tri-protic phosphate), third value: third of three pKa values
[2] = molecular target: T1, dihydropyrimidine dehydrogenase (DPD) (Homo sapiens, UniProt Q12882); details: background statement
T1 sequence (Q12882 4-1025): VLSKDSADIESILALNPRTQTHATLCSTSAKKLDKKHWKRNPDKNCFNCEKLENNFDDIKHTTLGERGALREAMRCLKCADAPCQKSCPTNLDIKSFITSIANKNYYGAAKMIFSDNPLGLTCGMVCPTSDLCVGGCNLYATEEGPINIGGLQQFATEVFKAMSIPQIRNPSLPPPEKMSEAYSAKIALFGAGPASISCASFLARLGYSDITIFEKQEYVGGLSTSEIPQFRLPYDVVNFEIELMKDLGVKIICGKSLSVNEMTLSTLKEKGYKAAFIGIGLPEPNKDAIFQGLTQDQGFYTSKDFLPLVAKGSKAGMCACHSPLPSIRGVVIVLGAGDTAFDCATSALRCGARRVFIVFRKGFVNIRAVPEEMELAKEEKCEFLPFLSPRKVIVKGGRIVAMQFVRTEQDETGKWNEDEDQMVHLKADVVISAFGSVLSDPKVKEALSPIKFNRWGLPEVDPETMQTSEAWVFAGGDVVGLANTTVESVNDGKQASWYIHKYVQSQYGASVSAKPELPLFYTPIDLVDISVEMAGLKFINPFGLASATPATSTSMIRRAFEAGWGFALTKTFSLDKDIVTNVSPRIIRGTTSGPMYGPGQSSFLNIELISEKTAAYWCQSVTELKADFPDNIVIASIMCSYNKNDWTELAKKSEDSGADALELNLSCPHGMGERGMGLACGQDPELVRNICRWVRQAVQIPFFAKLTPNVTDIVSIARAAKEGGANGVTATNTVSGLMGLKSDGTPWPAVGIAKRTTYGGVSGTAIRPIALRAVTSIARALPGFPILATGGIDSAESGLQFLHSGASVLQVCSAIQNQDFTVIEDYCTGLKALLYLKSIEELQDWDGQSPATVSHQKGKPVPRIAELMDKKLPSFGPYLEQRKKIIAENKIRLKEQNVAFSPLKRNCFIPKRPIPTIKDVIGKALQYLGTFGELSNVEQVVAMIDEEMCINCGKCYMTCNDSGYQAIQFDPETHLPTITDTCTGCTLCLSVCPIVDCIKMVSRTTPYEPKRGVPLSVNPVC

degradation by dihydropyrimidine dehydrogenase (DPD) [2] [%] | SMILES | pKa (tri-protic phosphate), first value [1] | Peturbed pKa (physiological pH) [1] | pKa (tri-protic phosphate), second value [1] | pKa (tri-protic phosphate), third value [1]
 | O=c1[nH]c(=O)n([C@H]2C[C@H](O)[C@@H](COP(=O)(O)O)O2)cc1F [FdUMP, 5-Fluoro-2′-deoxyuridine-5′-O-monophosphate] | phosphate) 2.15, | 6-6.5 | 7.20 | 12.33
> 80 | O=c1[nH]cc(F)c(=O)[nH]1 [Formulation 5-FU, 5-fluorouracil] |  |  |  | 
 | Nc1nc2c(ncn2[C@@H]2O[C@@H]3COP(=O)(O)O[C@H]4[C@@H](O)[C@H](n5cnc6c(N)ncnc65)O[C@@H]4COP(=O)(O)O[C@@H]2[C@@H]3O)c(=O)[nH]1 [cGAMP, 2′, 3′ cyclic guanosine monophosphate-adenosine monophosphate] | phosphate) 2,15, | Greater than 6.5 | 7.20 | 12.33
